# Changes are numbered by the printed parent chain.
# Tests used:
# [1] = biological target: T1, β-glucocerebrosidase, p.L444P mutation (GM08760A fibroblasts) (Homo sapiens, UniProt P04062, L483P); assay: Enhancement of β-glucocerebrosidase activity measured in Gaucher disease fibroblasts (L444P); type: cell-based; conditions: increase in enzyme activity vs non-treated cells, GBA fibroblasts bearing L444P
# T1 construct: host or cells: human Gaucher patient fibroblasts GM08760A, homozygous L444P
# T1 sequence (P04062 40-536 L483P): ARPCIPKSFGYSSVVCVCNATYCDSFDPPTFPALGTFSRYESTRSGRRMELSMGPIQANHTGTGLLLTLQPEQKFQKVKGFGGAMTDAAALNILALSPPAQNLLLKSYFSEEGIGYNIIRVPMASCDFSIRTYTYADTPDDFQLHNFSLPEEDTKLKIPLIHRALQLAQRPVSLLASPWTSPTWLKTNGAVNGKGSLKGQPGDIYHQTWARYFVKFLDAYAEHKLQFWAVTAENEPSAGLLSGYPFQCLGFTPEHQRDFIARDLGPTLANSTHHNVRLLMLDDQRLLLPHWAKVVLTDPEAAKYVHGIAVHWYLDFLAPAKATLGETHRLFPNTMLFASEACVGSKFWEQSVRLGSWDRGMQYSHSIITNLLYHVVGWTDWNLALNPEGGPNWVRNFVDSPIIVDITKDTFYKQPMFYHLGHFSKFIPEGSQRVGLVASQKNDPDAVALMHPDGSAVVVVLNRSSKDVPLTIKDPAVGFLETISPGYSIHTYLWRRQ
# Protocol: Enhancement of β-Glucocerebrosidase Activity Measured in Gaucher Disease Fibroblasts Materials
# Human fibroblasts from a patient with Gaucher disease homozygous for p.L444P mutation (GM08760A) were purchased from Coriell Institute for Medical Research (Camden, N.J., USA).
# (§1) Fibroblasts were seeded at 5×10^3 cells per well in 96-well cell culture plates (Corning, N.Y., USA) in Dulbecco's Modified Eagle's Media (DMEM) supplemented with 10% of fetal bovine serum (FBS), 1% penicillin/streptomycin (P/S) (Thermo Fisher Scientific, Waltham, Mass., USA) and grown at 37° C., 5% CO2 overnight for cell attachment. Subsequently, cells were incubated in the absence or presence of the compounds at the desired concentration for 4 days. After incubation, cells were washed twice with phosphate-buffered saline (PBS) and enzyme activity assay was performed.
# (§2) β-glucocerebrosidase activity in intact cultured cells was measured by using 4-methylumbelliferyl-β-D-glucopyranoside substrate (Apollo Scientific, UK). Briefly, cells were incubated with 4-MU-β-D-glucopyranoside in 0.1 M acetate buffer pH=4 at 37° C. for 1 hour. […] The liberated 4-MU was measured on a GloMax Discover plate reader (Promega, Madison, Wis., USA) with and excitation at 340 nm and emission at 460 nm. Enzyme activities were expressed in treated cells as X-fold increase in comparison with non-treated cells (X=1 represents no enhancement).
# The capacity of the compounds of the disclosure to produce an increase in enzyme activity in GBA fibroblasts bearing L444P at concentrations between 6 and 50 μM is denoted as follows:
# (§3) The following compounds listed in Table 2 were purchased (from Enamine, Princeton, Asinex, Vistas-M, and OSSK_541352) and tested in the assay as described above.
# [2] = biological target: T2, β-glucocerebrosidase Wild Type (WT) (Homo sapiens, UniProt P04062); assay: β-glucocerebrosidase activity enhancement, Wild Type (WT); type: cell-based; conditions: increase in enzyme activity vs non-treated cells; for Activity WT: commercially available compounds
# T2 construct: endogenous in cells
# T2 sequence (P04062 40-536): T1 sequence (P04062 40-536 L483P) with P444L
# Protocol: as §1, §2, §3
# [3] = concentrations between 6 and 50 μM, 4 days incubation
# [4] = commercially available compounds, 6-50 μM, 4 days
SMILES,"Activity L444P [1, 3]",Activity Wild Type (WT) [2],"Activity L444P [1, 4]",Activity WT [2]
"Cc1ccc(Nc2nc(N)nc(CN(C)Cc3ccccc3)n2)cc1 [Example 4, 6-((Benzyl(methyl)amino)methyl)-N^2-p-tolyl-1,3,5-trizine-2,4-diamine]",C (Increase in comparison with non-treated of 1.2-1.7 fold is shown as C),A (Increase in comparison with non-treated of >2.0 fold is shown as A),,
"COc1ccc(CN(C)Cc2cc(Nc3cccc(C)c3)nc(N)n2)cc1 [Example 47, 6-(((4-Methoxybenzyl)(methyl)amino)methyl)-N^4-m-tolylpyrimidine-2,4-diamine]",C (Increase in comparison with non-treated of 1.2-1.7 fold is shown as C),C (Increase in comparison with non-treated of 1.2-1.7 fold is shown as C),,
"COc1cccc(Nc2cc(CN(C)Cc3ccc(F)cc3)nc(N)n2)c1 [Example 45, 6-(((4-Fluorobenzyl)(methyl)amino)methyl)-N^4-(3-methoxyphenyl)pyrimidine-2,4-diamine]",C (Increase in comparison with non-treated of 1.2-1.7 fold is shown as C),C (Increase in comparison with non-treated of 1.2-1.7 fold is shown as C),,
CN(Cc1ccccc1)Cc1nc(N)nc(Nc2cccc(Br)c2)n1 [Example 8],B (Increase in comparison with non-treated of >1.7-2.0 fold is shown as B),B (Increase in comparison with non-treated of >1.7-2.0 fold is shown as B),,
"Cc1ccc(Nc2cc(CN(C)Cc3ccccc3)nc(N)n2)cc1 [Example 52, 6-((Benzyl(methyl)amino)methyl)-N^4-p-tolylpyrimidine-2,4-diamine]",C (Increase in comparison with non-treated of 1.2-1.7 fold is shown as C),C (Increase in comparison with non-treated of 1.2-1.7 fold is shown as C),,
"Cc1cccc(Nc2nc(N)cc(CN(C)Cc3ccccc3)n2)c1 [Example 68, 6-((Benzyl(methyl)amino)methyl)-N^2-m-tolylpyrimidine-2,4-diamine]",B (Increase in comparison with non-treated of >1.7-2.0 fold is shown as B),A (Increase in comparison with non-treated of >2.0 fold is shown as A),,
COc1cccc(Nc2nc(N)nc(CN(C)Cc3ccccc3)n2)c1 [Example 9],C (Increase in comparison with non-treated of 1.2-1.7 fold is shown as C),B (Increase in comparison with non-treated of >1.7-2.0 fold is shown as B),,
"COc1ccc(Nc2cc(CN(C)Cc3ccccc3)nc(N)n2)cc1 [Example 18, 6-((benzyl(methyl)amino)methyl)-N^4-(4-methoxyphenyl)pyrimidine-2,4-diamine]",B (Increase in comparison with non-treated of >1.7-2.0 fold is shown as B),B (Increase in comparison with non-treated of >1.7-2.0 fold is shown as B),,
"Cc1ccc(Nc2nc(N)nc(CN3CCCc4ccccc43)n2)cc1 [6-((3,4-dihydroquinolin-1(2H)-yl)methyl)-N2-(p-tolyl)-1,3,5-triazine-2,4-diamine]",,,C (Increase in comparison with non-treated of 1.2-1.7 fold is shown as C),C (Increase in comparison with non-treated of 1.2-1.7 fold is shown as C)
"COc1ccc(C)cc1Nc1cc(CN(C)Cc2ccccc2)nc(N)n1 [Example 46, 6-((Benzyl(methyl)amino)methyl)-N^4-(2-methoxy-5-methylphenyl)pyrimidine-2,4-diamine]",B (Increase in comparison with non-treated of >1.7-2.0 fold is shown as B),B (Increase in comparison with non-treated of >1.7-2.0 fold is shown as B),,
"COc1cccc(N2CCN(Cc3nc(N)nc(NCc4ccccc4)n3)CC2)c1 [N2-benzyl-6-((4-(3-methoxyphenyl)piperazin-1-yl)methyl)-1,3,5-triazine-2,4-diamine]",,,C (Increase in comparison with non-treated of 1.2-1.7 fold is shown as C),C (Increase in comparison with non-treated of 1.2-1.7 fold is shown as C)
Cc1cccc(Nc2cc(CN(C)Cc3ccccc3)nc(N)n2)c1 [Example 16],B (Increase in comparison with non-treated of >1.7-2.0 fold is shown as B),A (Increase in comparison with non-treated of >2.0 fold is shown as A),,
"COc1ccc(CN(C)Cc2cc(Nc3ccc(C)cc3)nc(N)n2)cc1 [Example 33, 6-(((4-Methoxybenzyl)(methyl)amino)methyl)-N^4-p-tolylpyrimidine-2,4-diamine]",B (Increase in comparison with non-treated of >1.7-2.0 fold is shown as B),B (Increase in comparison with non-treated of >1.7-2.0 fold is shown as B),,
"Cc1ccc(Nc2nc(N)nc(CN(C)c3ccccc3)n2)cc1 [Example 1, 6-((Methyl(phenyl)amino)methyl)-N^2-(p-tolyl)-1,3,5-triazine-2,4-diamine]",C (Increase in comparison with non-treated of 1.2-1.7 fold is shown as C),B (Increase in comparison with non-treated of >1.7-2.0 fold is shown as B),,
"COc1cccc(Nc2cc(CN(C)Cc3ccccc3)nc(N)n2)c1OC [Example 42, 6-((Benzyl(methyl)amino)methyl)-N^4-(2,3-dimethoxyphenyl)pyrimidine-2,4-diamine]",C (Increase in comparison with non-treated of 1.2-1.7 fold is shown as C),B (Increase in comparison with non-treated of >1.7-2.0 fold is shown as B),,
"CN(Cc1ccccc1)Cc1cc(Nc2ccc(C#N)cc2)nc(N)n1 [Example 19, 4-(2-amino-6-((benzyl(methyl)amino)methyl)pyrimidin-4-ylamino)benzonitrile]",B (Increase in comparison with non-treated of >1.7-2.0 fold is shown as B),B (Increase in comparison with non-treated of >1.7-2.0 fold is shown as B),,
"Cc1ccc(Nc2nc(N)nc(CN(C)c3ccc4ccccc4c3)n2)cc1 [6-((methyl(naphthalen-2-yl)amino)methyl)-N2-(p-tolyl)-1,3,5-triazine-2,4-diamine]",,,A (Increase in comparison with non-treated of >2.0 fold is shown as A),C (Increase in comparison with non-treated of 1.2-1.7 fold is shown as C)
"COc1ccccc1Nc1nc(N)cc(CN(C)Cc2ccccc2)n1 [Example 67, 6-((Benzyl(methyl)amino)methyl)-N^2-(2-methoxyphenyl) pyrimidine-2,4-diamine]",A (Increase in comparison with non-treated of >2.0 fold is shown as A),B (Increase in comparison with non-treated of >1.7-2.0 fold is shown as B),,
